The values that follow come from paper PMC6106897, “Biocatalytic synthesis of acylated derivatives of troxerutin: their bioavailability and antioxidant properties in vitro” (Microbial Cell Factories, 2018).

Series [1] in a line: Transport experiment in Caco-2 monolayers. It counts as in vitro ADME, human. The following applies: human, Caco-2. On the procedure: (§1) The absorptions of troxerutin and its acylated derivatives was measured as described by Chen et al.. Caco-2 cells were cultured in DMEM supplemented with 10% FBS, 100 μg/mL streptomycin, and 100 U/mL penicillin at 37 °C in an atmosphere of 5% CO2 and the medium was changed every 2 days. Caco-2 cells used in this study were seeded onto 12-well translucent Transwell inserts (0.4 μm pore size, Corning Costar, Corning, NY, USA) at a density of 2.5 × 10^5 cells/mL and grown for 3 weeks. Transepithelial electrical resistance (TEER) and lucifer yellow were measured to detect the integrity of Caco-2 monolayers. TEER values were measured by using a voltammeter (Millicell ERS, Millipore, Bedford, MA, USA) and the amount of lucifer yellow transported to the basolateral side in a 2.5-h period was quantified by using a fluorospectrometer (Fluoroskan Ascent FL, Thermo Labsystems, Helsinki, Finland) at an excitation wavelength of 425 nm and emission wavelength of 530 nm. ALP activity was measured to detect the differentiation degree of Caco-2 monolayers by using an ALP Assay Kit.
(§2) Samples (100 μM, 0.5 mL) were placed on the apical (AP) side along with 1.5 mL of HBSS added to the basolateral (BL) side. […] The volume removed from the recipient side was replaced with fresh HBSS at 30, 60, 90, 120, and 150 min. The concentrations on the BL side were measured by HPLC. The apparent permeability coefficients (Papp, cm/s) were calculated according to the equation: Papp=dQ/dt×V/A×C0, where the dQ/dt is the permeability rate (μM/s) calculated from the slope of the amount of tested compounds transported versus time, V is the volume of the basolateral chamber (mL), A is the surface area of the inset (cm^2), and C0 is the initial concentration (μM) of the samples.
In general terms: Passage across Caco-2 layers is used to estimate intestinal permeability.

The conditions of series [2]: after oral consumption; cited from earlier work.
The nature of series [3]: Hydroxyl radical scavenging ability. The following applies: sample concentration 20 μM. The procedure:
(§3) Scavenging abilities of hydroxyl and ABTS radicals, and ORAC were measured as described previously with some modifications. A 759S UV/Vis spectrophotometer (Lengguang Technology, Shanghai, China) was used to determine the absorbance of HO· at 532 nm and ABTS^·+ at 734 nm. ORAC analysis was conducted using a Fluoroskan Ascent microplate reader (Thermo Electron Corp., Waltham, MA, USA) at excitation and emission wavelengths of 485 and 530 nm, respectively. Trolox or vitamin C (VC) was used as a positive control, the sample concentration was 20 μM, and all experiments were repeated independently in triplicate.

Series [4] is described as follows: ABTS radical scavenging ability. The following applies: sample concentration 20 μM. On the procedure: as §3
Series [5] is described as follows: 1-octanol/water partition coefficient (logP). It counts as physicochemical. The procedure:
The 1-octanol/water partition coefficients of troxerutin and its propionyl derivatives were measured as previously described. Each compound was fully mixed with 1-octanol and then vigorously mixed with an equal amount of water. After equilibration for 30 min, the concentrations of compound in each layer were respectively measured by HPLC. The results are shown as common logarithms (logP).

The nature of series [6]: ORAC assay (fluorescence quenching induced by AAPH). To be noted: 20 μM. On the procedure: as §3
A further series deals with erythrocytes. As to the kind of experiment: Erythrocyte hemolysis induced by AAPH. It counts as cell-based, sheep. To be noted: 20 μM sample, 200 mM AAPH, 2.5 h, 37 °C. The procedure:
The hemolysis study was performed according to the method of Zhang et al. with some modifications. Erythrocytes from healthy sheep were centrifuged at 770×g for 10 min at 4 °C and washed three times with PBS. Equal amounts of erythrocyte suspension (20%, v/v) and sample solution (20 μM) were mixed and the mixture was incubated for 20 min at 37 °C. After adding 200 mM AAPH, incubation was continued for a further 2.5 h at the same temperature. The final reaction system was diluted with 8 mL PBS and then centrifuged at 1200×g for 10 min at 4 °C. The degree of hemolysis in the supernatant was determined by measuring the absorbance at 540 nm. To obtain the complete hemolysate, ultrapure water was added to the mixture. PBS was used as a negative control and Trolox was used as a positive control. These values were measured using a 756S UV/Vis spectrophotometer (Lengguang Technology). The treated supernatant was collected to measure the level of MDA. All experiments were performed independently in triplicate. The hemolysis rate was calculated using the equation: Hemolysis rate%=OD540of sample/OD540of complete hemolysis×100%.

In series [7] the test system is erythrocyte lysate membrane lipid peroxidation. Nature of the series: Lipid peroxidation (MDA release) after complete hemolysis. The series is classed as cell-based, sheep. The following applies: erythrocytes completely hemolysed in cold ultrapure water, lysate treated with AAPH.
The test system of the next series is Caco-2 monolayers. As to the kind of experiment: Transport experiment in Caco-2 monolayers. The series is classed as in vitro ADME, human. The following applies: Caco-2 monolayers. On the procedure: as §1, §2

Where only a bound is given, the exact number is not on record here.

In the case of `CC(C)NCC(O)COc1cccc2ccccc12` (centres unmarked) [Propranolol], in series [1], the Papp A→B at 150 min, 100 μM was determined as 48.9 ± 3.3 ×10⁻⁶ cm/s and the Papp B→A at 150 min, 100 μM turned out to be 44 ± 2.98 ×10⁻⁶ cm/s. Further, the Bioavailability in [2] was above 90%.

Regarding `O=C1O[C@H]([C@@H](O)CO)C(O)=C1O` [VC, vitamin C, reference compound], the “Free radical scavenging ability HO·” value in series [3] is given as 99.3 ± 0.05 a %. Further, in series [4], the “Free radical scavenging ability ABTS·+” value is reported as 100 ± 0.02 a %.

`CCC(=O)OCCOc1cc(O)c2c(=O)c(OC3OC(COC4OC(C)C(O)C(O)C4O)C(O)C(O)C3O)c(-c3ccc(OCCOC(=O)CC)c(OCCO)c3)oc2c1` (centres unmarked) [TDE] came in with a log partition coefficient (logP) at 30 min in [5] of 1.51 ± 0.05. Also, in [1], the Papp A→B at 150 min, 100 μM was determined as 1.54 ± 0.17 ×10⁻⁶ cm/s and the Papp B→A at 150 min, 100 μM was 1.53 ± 0.21 ×10⁻⁶ cm/s. Moreover, the “Free radical scavenging ability HO·” value in series [3] worked out at 89.7 ± 1.8 c %. The “Free radical scavenging ability ABTS·+” value in series [4] came to 81.5 ± 2.1 c %. In series [6], the “Capacity to inhibit fluorescence quenching (ORAC), rank order” value was “troxerutin ≈ TME > TDE”. Also, in the series on erythrocytes, the “Inhibition effects on AAPH-induced erythrocyte hemolysis, rank order” value (shortened to “Inhibition effects”) is reported as “troxerutin < TME ≈ TDE” and the “Inhibition of AAPH-induced erythrocyte hemolysis” value is listed as “effectively inhibited”. For the same molecule, in [7], the “Inhibition ability for membrane lipid peroxidation (MDA release), rank order” value (“Inhibition ability” below) is on record as “troxerutin ≈ TME > TDE”.

In series [1], `C[C@@H]1O[C@@H](OC[C@H]2O[C@@H](Oc3c(-c4ccc(OCCO)c(OCCO)c4)oc4cc(OCCO)cc(O)c4c3=O)[C@H](O)[C@@H](O)[C@@H]2O)[C@H](O)[C@H](O)[C@H]1O` [Troxerutin, troxerutin] gave a Papp A→B at 150 min, 100 μM of 0.34 ± 0.05 ×10⁻⁶ cm/s and a Papp B→A at 150 min, 100 μM of 0.35 ± 0.03 ×10⁻⁶ cm/s. Also, the “Free radical scavenging ability HO·” value in series [3] came to 97.1 ± 2.7 ab %. For the same molecule, in [4], the “Free radical scavenging ability ABTS·+” value is reported as 96.8 ± 4.1 ab %. Further, the “Capacity to inhibit fluorescence quenching (ORAC), rank order” value in [6] is recorded as “troxerutin ≈ TME > TDE”. In the series on erythrocytes, the “Inhibition effects” value is on record as “troxerutin < TME ≈ TDE” and the “Inhibition of AAPH-induced erythrocyte hemolysis” value is given as “effectively inhibited”. Further, the “Inhibition ability” value in series [7] is “troxerutin ≈ TME > TDE”.

Turning to `CCC(=O)OCCOc1ccc(-c2oc3cc(OCCO)cc(O)c3c(=O)c2OC2OC(COC3OC(C)C(O)C(O)C3O)C(O)C(O)C2O)cc1OCCO` (centres unmarked) [TME], the logP at 30 min in [5] is below 0. In [1], this molecule had a Papp A→B at 150 min, 100 μM of 0.99 ± 0.12 ×10⁻⁶ cm/s and a Papp B→A at 150 min, 100 μM of 1.05 ± 0.12 ×10⁻⁶ cm/s. In [3], the “Free radical scavenging ability HO·” value stood at 95.2 ± 3.5 b %. Also, in series [4], the “Free radical scavenging ability ABTS·+” value is 90.4 ± 3.0 b %. For the same molecule, the “Capacity to inhibit fluorescence quenching (ORAC), rank order” value in [6] is reported as “troxerutin ≈ TME > TDE”. In addition, in the series on erythrocytes, the “Inhibition effects” value was “troxerutin < TME ≈ TDE” and the “Inhibition of AAPH-induced erythrocyte hemolysis” value is recorded as “effectively inhibited”. Moreover, the “Inhibition ability” value in series [7] is on record as “troxerutin ≈ TME > TDE”.

In series [1], `C[C@@H]1O[C@@H](OC[C@H]2O[C@@H](Oc3c(-c4ccc(O)c(O)c4)oc4cc(O)cc(O)c4c3=O)[C@H](O)[C@@H](O)[C@@H]2O)[C@H](O)[C@H](O)[C@H]1O` [Rutin, rutin] had a Papp A→B at 150 min, 100 μM of 0.06 ± 0.01 ×10⁻⁶ cm/s; an apparent permeability from basolateral to apical (Papp B→A) at 150 min, 100 μM of 0.06 ± 0.02 ×10⁻⁶ cm/s; a Papp at 150 min, 100 μM of 0.06 ×10⁻⁶ cm/s. Moreover, in the series on Caco-2 monolayers, the “UR (uptake ratio = Papp AP–BL/Papp BL–AP)” value turned out to be 1.00 ± 0.05.

The Papp A→B is the apparent permeability from the apical to the basolateral side of a cell layer. Low readings indicate poor permeation, high ones ready permeation. As usually defined, the Papp B→A is the apparent permeability from the basolateral to the apical side of a cell layer. By logP is commonly meant the decadic logarithm of the partition coefficient of the neutral form, usually between octanol and water. A higher logP goes with a more lipophilic compound. Broadly, the Papp is a coefficient for how fast a substance crosses the barrier. A lower Papp goes with poor permeation.
